Structures are written as SMILES.

This data set can be described thus: Stability of the crystalline solvate form on drying, followed by XRPD. Type of data set: physicochemical. As for the experimental part:
XRPD analyses were performed using a PANalytical X′pert pro with PIXcel detector (128 channels), scanning the samples between 3 and 35° 20. Solid Compound (1) was gently ground to release any agglomerates and loaded onto a multi-well plate with a Mylar polymer film to support the sample. The multi-well plate was then placed into the diffractometer and analyzed using Cu K radiation (a1 λ=1.54060 Å; a2=1.54443 Å; β=1.39225 Å; a1: a2 ratio=0.5) running in transmission mode (step size 0.0130° 20, step time 18.87s) using 40 kV/40 mA generator settings. Data were visualized and images generated using the HighScore Plus 4.7 desktop application (PANalytical, 2017). The 20 position was calibrated using alumina powder reference standard on a monthly basis.
100 mg of anhydrous Compound (1) was temperature cycled in 600 μL of acetone for 24 hours. Accordingly, 600 μL of acetone was added in 200 μL aliquots to a vile containing 100 mg of anhydrous Compound (1), to form a movable slurry. The vile was then capped, wrapped in parafilm and temperature cycled in an incubator shaker between ambient temperature and 40° C. with a 4 hour hold at each temperature. After 24 hours, the solid Compound (1) Acetone Solvate Form was isolated by centrifugation.
Approximately 200 mg of anhydrous Compound (1) was weighed into a scintillation vial and 1 mL of DMSO added to form a slurry. The slurry was then temperature cycled between ambient temperature and 40° C. in 4 hour cycles for 48 hours. After this time, the sample was dried in a 40° C. oven. On removal from the oven, the sample remained wet, so the sample was isolated by centrifuge filtration and then dried under vacuum at ambient conditions over night. After drying, the sample was reanalyzed by XRPD to be Compound (1) DMSO Solvate Form.
FIG. 4 depicts a non-normalized X-ray powder diffraction pattern for Compound (1) DMSO Solvate Form. The XRPD pattern was stable on drying under vacuum.

For `COC[C@@]1(O)CC[C@H]2[C@@H](CC[C@@H]3[C@@H]2CC[C@]2(C)[C@@H](C(=O)Cn4nnc(C)n4)CC[C@@H]32)C1` [Compound (1) DMSO Solvate Form], where the note is “drying under vacuum”, the “XRPD pattern stability on drying” value is “stable”.

Consider `COC[C@@]1(O)CC[C@H]2[C@@H](CC[C@@H]3[C@@H]2CC[C@]2(C)[C@@H](C(=O)Cn4nnc(C)n4)CC[C@@H]32)C1` [Compound (1) Acetone Solvate Form], for which the “Crystallinity / XRPD pattern after gentle drying” value was “the XRPD pattern had not changed, there was a significant drop in crystallinity” (72 hours gentle drying at ambient temperature (no vacuum), repreparation by temperature cycling) and “significant loss in crystallinity, but negligible change in the XRPD pattern” (drying at 40° C. for 24 hours). In addition, the “Solid form obtained after complete drying” value (complete drying of the product) was “produces crystalline anhydrous Compound (1)”.

These data come from patent US20260242410A1, “CRYSTALLINE FORMS OF A NEUROACTIVE STEROID” (Sage Therapeutics, Inc., priority 2022, published 2026).
